Where “and” joins values, the source holds several entries; their conditions need not be identical. Identical values can stand only once. Like-named read-outs stand apart in the source and are kept apart here.
Assays:
[1] = tested on: 3T3 mouse embryo fibroblasts; assay: MTT cytotoxicity assay, 3T3 cells; assay type: cell-based; conditions: for MTT, relative to control (0 = 100): 3T3, 10 000 b/j
Description: (§1) For cytotoxicity experiments, cancer cells were seeded at a density of 5,000 (MCF-7), 10,000 (HL-60) or 2,000 cells/well (HCT116 and A549) in 96-well plates (TPP) for 24 h/37°C prior to the addition of examined agents. The non-cancerous cells, 3T3 and H9c2 cells, were cultured for 24 h/37°C in 96-well plates at a density of 10,000 cells/well, the medium was then changed to serum- and pyruvate-free DMEM (Sigma-Aldrich) and incubated with the cells for another 24 h/37°C. The cytotoxic effects of Bp4eT and its metabolites were studied at different concentrations after a 72 h/37°C incubation. In order to aid the dissolution of the lipophilic ligands, 0.1% dimethyl sulfoxide (v/v) (DMSO; Sigma-Aldrich) was present in the culture medium of all groups. At this concentration, DMSO had no effect on cellular proliferation or viability.
(§2) The viability of cells were determined using an MTT assay (Sigma-Aldrich) according to previously established methods. The optical density of soluble MTT was measured at λ = 570 nm, subtracting the λ = 690 nm background using a Tecan Infinite 200M plate reader (Tecan Group, Männedorf, Switzerland). The viability or proliferation of experimental groups was expressed as a percentage of the untreated controls (100%).
(§3) SigmaStat for Windows 3.5 (Systat Software, San Jose, CA, USA) statistical software package was utilized to analyze results. The data are expressed as the mean ± SD of a given number of experiments. Statistical significance was determined using a one-way ANOVA with a Bonferroni post-hoc test or Student’s t-test. The results were considered to be statistically significant when p < 0.05. The IC50 values were calculated using CalcuSyn 2.0 software (Biosoft, Cambridge, UK). Cell cycle analysis was evaluated using MultiCycle AV Software (Phoenix Flow Systems, San Diego, CA, USA).

caspases 3/7 = assay: Caspase activity, luminescent kit, caspases 3/7; assay type: cell-based, human; conditions: for kaspáza (3) a 7, raw signal / kaspáza (3) a 7, signal / viabilita: individual experiments by date; for kaspáza (3) a 7, raw signal, průměry / kaspáza (3) a 7, % kontroly / kaspáza (3) a 7, signal / viabilita, průměry: mean; for kaspáza (3) a 7, % kontroly / kaspáza (3) a 7, signal / viabilita / kaspáza (3) a 7, signal / viabilita, průměry: normalised to viability
Description: To assess the effect of the compounds on caspase activity, MCF-7 cells were incubated with 100 nM Bp4eT or its metabolites for 3, 24 or 72 h/37°C in 96-well plates, as described above. The cells were then lysed by adding 100 μL of cold lysis buffer (100 mM HEPES, 10 mM CHAPS, 10 mM D-L-dithiothreitol, pH 7.4) to 100 μL of medium in each well. Lysates were immediately frozen at -80°C. Thawed lysates were used to assess caspase activity using luminescent kits for caspases 3/7, 8 and 9 (Promega, Madison, WI, USA). The luminescence was measured using the Tecan Infinite 200M plate reader. Caspase activity in the experimental groups was corrected according to the cellular viability of each group and expressed as a percentage of activity of the untreated control (100%).

H9c2 cardiomyoblasts = assay: MTT cytotoxicity assay, H9c2 cells; assay type: cell-based, rat; conditions: for IC50: MTT; for MTT, relative to control (0 = 100): H9c2
Description: as §1, §2, §3

In the case of `CCNC(=O)NN=C(c1ccccc1)c1ccccn1` [Z-Bp4eS, 2-benzoylpyridine 4-ethylsemicarbazone], the IC50 ([1]; 3T3, 72 h/37°C, MTT, mean ± SD, n ≥ 4, read-out: IC50) is reported as over 1000 µM, the “MTT, relative to control (0 = 100)” value ([1]; 1 μM, průměr (mean)) is reported as 99.81 and the “MTT, relative to control (0 = 100)” value ([1]; 1 μM, single experiment (date)) is reported as 90.4217 and 112.179 and 103.613 and 93.692 and 99.1404. For the same molecule, the “MTT, relative to control (0 = 100)” value ([1]; 3 μM, průměr (mean)) was 93.98, the “MTT, relative to control (0 = 100)” value ([1]; 3 μM, single experiment (date)) was 89.9896 and 95.9618 and 102.444 and 92.291 and 89.1987 and the “MTT, relative to control (0 = 100)” value ([1]; 10 μM, průměr (mean)) was 93.85. For the same molecule, the “MTT, relative to control (0 = 100)” value ([1]; 10 μM, single experiment (date)) was 91.4468 and 99.0627 and 95.1304 and 94.2734 and 89.336, the “MTT, relative to control (0 = 100)” value ([1]; 30 μM, průměr (mean)) was 90.21 and the “MTT, relative to control (0 = 100)” value ([1]; 30 μM, single experiment (date)) was 100.856 and 90.0957 and 87.8236 and 82.0687. For the same molecule, the “MTT, relative to control (0 = 100)” value ([1]; 100 μM, průměr (mean)) was 73.57, the “MTT, relative to control (0 = 100)” value ([1]; 100 μM, single experiment (date)) was 81.8752 and 74.6133 and 74.3643 and 63.4281 and the “MTT, relative to control (0 = 100)” value ([1]; 300 μM, průměr (mean)) was 72.55. For the same molecule, the “MTT, relative to control (0 = 100)” value ([1]; 300 μM, single experiment (date)) was 79.104 and 69.1035 and 70.1959 and 71.7888, the “MTT, relative to control (0 = 100)” value ([1]; 1000 μM, průměr (mean)) was 63.36 and the “MTT, relative to control (0 = 100)” value ([1]; 1000 μM, single experiment (date)) was 73.2159 and 60.5042 and 61.05 and 58.6559. For the same molecule, the “kaspáza (3) a 7, raw signal” value (caspases 3/7; 3 hodiny) was 1797.5 and 1540 and 1728.5 and 1382, the “kaspáza (3) a 7, raw signal, průměry” value (caspases 3/7; 3 hodiny) was 1612 and the “kaspáza (3) a 7, % kontroly” value (caspases 3/7; 3 hodiny) was 100.57 % kontroly. The “kaspáza (3) a 7, signal / viabilita” value (caspases 3/7; 3 hodiny) was 18.4535 and 15.81 and 17.7452 and 14.1879, the “kaspáza (3) a 7, signal / viabilita, průměry” value (caspases 3/7; 3 hodiny) was 16.5491 and the “kaspáza (3) a 7, raw signal” value (caspases 3/7; 24 hodin) was 2520 and 2115 and 2668.5 and 2356.5. The “kaspáza (3) a 7, raw signal, průměry” value (caspases 3/7; 24 hodin) was 2415, the “kaspáza (3) a 7, % kontroly” value (caspases 3/7; 24 hodin) was 106.11 % kontroly and the “kaspáza (3) a 7, signal / viabilita” value (caspases 3/7; 24 hodin) was 25.3376 and 21.2655 and 26.8307 and 23.6936. The “kaspáza (3) a 7, signal / viabilita, průměry” value (caspases 3/7; 24 hodin) was 24.2818, the “kaspáza (3) a 7, raw signal” value (caspases 3/7; 72 hodin) was 7018 and 6964.5 and 7418.5 and 7469 and the “kaspáza (3) a 7, raw signal, průměry” value (caspases 3/7; 72 hodin) was 7217.5. For the same molecule, the “kaspáza (3) a 7, % kontroly” value (caspases 3/7; 72 hodin) was 104.65 % kontroly, the “kaspáza (3) a 7, signal / viabilita” value (caspases 3/7; 72 hodin) was 75.0267 and 74.4548 and 79.3083 and 79.8482 and the “kaspáza (3) a 7, signal / viabilita, průměry” value (caspases 3/7; 72 hodin) was 77.1595. For the same molecule, the IC50 (H9c2 cardiomyoblasts; H9c2, 72 h/37°C, mean ± SD, n ≥ 4, read-out: IC50) was 343 ± 95.1 µM, the “MTT, relative to control (0 = 100)” value (H9c2 cardiomyoblasts; 10 000 b/j, 1 μM, průměr (mean), sheet Z-Bp4eS) was 99.81 and the “MTT, relative to control (0 = 100)” value (H9c2 cardiomyoblasts; 10 000 b/j, 1 μM, single experiment (date), sheet Z-Bp4eS) was 102.371 and 103.08 and 95.5416 and 98.2281. For the same molecule, the “MTT, relative to control (0 = 100)” value (H9c2 cardiomyoblasts; 10 000 b/j, 3 μM, průměr (mean), sheet Z-Bp4eS) was 93.78, the “MTT, relative to control (0 = 100)” value (H9c2 cardiomyoblasts; 10 000 b/j, 3 μM, single experiment (date), sheet Z-Bp4eS) was 92.602 and 95.2542 and 92.4159 and 94.8358 and the “MTT, relative to control (0 = 100)” value (H9c2 cardiomyoblasts; 10 000 b/j, 10 μM, průměr (mean), sheet Z-Bp4eS) was 89.06. For the same molecule, the “MTT, relative to control (0 = 100)” value (H9c2 cardiomyoblasts; 10 000 b/j, 10 μM, single experiment (date), sheet Z-Bp4eS) was 88.6483 and 89.659 and 90.3674 and 87.5524, the “MTT, relative to control (0 = 100)” value (H9c2 cardiomyoblasts; 10 000 b/j, 30 μM, průměr (mean), sheet Z-Bp4eS) was 76.27 and the “MTT, relative to control (0 = 100)” value (H9c2 cardiomyoblasts; 10 000 b/j, 30 μM, single experiment (date), sheet Z-Bp4eS) was 77.9281 and 80.0605 and 74.6409 and 72.4521. For the same molecule, the “MTT, relative to control (0 = 100)” value (H9c2 cardiomyoblasts; 10 000 b/j, 100 μM, průměr (mean), sheet Z-Bp4eS) was 56.31, the “MTT, relative to control (0 = 100)” value (H9c2 cardiomyoblasts; 10 000 b/j, 100 μM, single experiment (date), sheet Z-Bp4eS) was 59.4912 and 57.2744 and 57.5228 and 50.9483 and the “MTT, relative to control (0 = 100)” value (H9c2 cardiomyoblasts; 10 000 b/j, 300 μM, průměr (mean), sheet Z-Bp4eS) was 53.60. The “MTT, relative to control (0 = 100)” value (H9c2 cardiomyoblasts; 10 000 b/j, 300 μM, single experiment (date), sheet Z-Bp4eS) was 52.3885 and 58.4831 and 53.7777 and 49.7549, the “MTT, relative to control (0 = 100)” value (H9c2 cardiomyoblasts; 10 000 b/j, 1000 μM, průměr (mean), sheet Z-Bp4eS) was 39.75 and the “MTT, relative to control (0 = 100)” value (H9c2 cardiomyoblasts; 10 000 b/j, 1000 μM, single experiment (date), sheet Z-Bp4eS) was 41.1185 and 45.5292 and 39.9014 and 32.4603. The IC50 (H9c2 cardiomyoblasts; Rattus norvegicus, H9c2, H9c2, 10 000 b/j, průměr (mean), sheet Z-Bp4eS, read-out: IC50 měřené) was 343 µM.

— PMC4604124, “In Vitro Characterization of the Pharmacological Properties of the Anti-Cancer Chelator, Bp4eT, and Its Phase I Metabolites” (PLoS ONE, 2015)
